Measurements taken from article PMC6390583 (BMC rheumatology, 2018).
“And” between values parts separate entries of the source, which are not always exact repeats. Identical values can stand only once.

Experiments:
Assay in all cases: trFRET binding kinome profiling
[1] = target: CDK9/Cyclin K (Homo sapiens, UniProt P50750)
Description: (§1) JAK activity assays using isolated kinase domains in the presence of 0.1 mM ATP and trFRET kinome profiling were conducted as described previously (17).

[2] = target: CSF1R (Homo sapiens, UniProt P07333)
Description: as §1

[3] = target: Wee1 (Homo sapiens, UniProt P30291)
Chain of Wee1 (P30291 whole entry, species assumed): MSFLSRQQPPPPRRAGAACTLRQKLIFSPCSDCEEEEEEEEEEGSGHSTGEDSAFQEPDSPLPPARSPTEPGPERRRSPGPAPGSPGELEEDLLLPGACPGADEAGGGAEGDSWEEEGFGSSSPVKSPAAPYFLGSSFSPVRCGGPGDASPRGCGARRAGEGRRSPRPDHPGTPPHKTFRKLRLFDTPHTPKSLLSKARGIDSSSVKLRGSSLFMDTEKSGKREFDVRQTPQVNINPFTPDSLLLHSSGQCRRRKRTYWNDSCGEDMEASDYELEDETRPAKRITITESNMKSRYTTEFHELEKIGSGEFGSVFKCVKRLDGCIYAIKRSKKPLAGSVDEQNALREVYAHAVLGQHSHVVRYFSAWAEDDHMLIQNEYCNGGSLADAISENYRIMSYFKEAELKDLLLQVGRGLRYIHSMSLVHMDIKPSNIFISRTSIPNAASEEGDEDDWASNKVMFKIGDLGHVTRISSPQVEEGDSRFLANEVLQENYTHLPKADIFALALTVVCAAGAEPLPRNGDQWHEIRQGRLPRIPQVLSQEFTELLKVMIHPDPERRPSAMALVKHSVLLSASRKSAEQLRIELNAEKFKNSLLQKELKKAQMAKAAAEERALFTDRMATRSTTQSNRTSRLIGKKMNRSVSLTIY
Description: as §1

[4] = target: Gsk3a (Homo sapiens, UniProt P49840)
Description: as §1

[5] = target: InsR (Homo sapiens, UniProt P06213)
Description: as §1

[6] = target: TrkB (Homo sapiens, UniProt Q16620)
Description: as §1

[7] = target: TAOK2 (Homo sapiens, UniProt Q9UL54)
Description: as §1

[8] = target: CAMKK2 (Homo sapiens, UniProt Q96RR4)
Description: as §1

[9] = target: PKCtheta (Homo sapiens, UniProt Q04759)
Chain of PKCtheta (Q04759 whole entry): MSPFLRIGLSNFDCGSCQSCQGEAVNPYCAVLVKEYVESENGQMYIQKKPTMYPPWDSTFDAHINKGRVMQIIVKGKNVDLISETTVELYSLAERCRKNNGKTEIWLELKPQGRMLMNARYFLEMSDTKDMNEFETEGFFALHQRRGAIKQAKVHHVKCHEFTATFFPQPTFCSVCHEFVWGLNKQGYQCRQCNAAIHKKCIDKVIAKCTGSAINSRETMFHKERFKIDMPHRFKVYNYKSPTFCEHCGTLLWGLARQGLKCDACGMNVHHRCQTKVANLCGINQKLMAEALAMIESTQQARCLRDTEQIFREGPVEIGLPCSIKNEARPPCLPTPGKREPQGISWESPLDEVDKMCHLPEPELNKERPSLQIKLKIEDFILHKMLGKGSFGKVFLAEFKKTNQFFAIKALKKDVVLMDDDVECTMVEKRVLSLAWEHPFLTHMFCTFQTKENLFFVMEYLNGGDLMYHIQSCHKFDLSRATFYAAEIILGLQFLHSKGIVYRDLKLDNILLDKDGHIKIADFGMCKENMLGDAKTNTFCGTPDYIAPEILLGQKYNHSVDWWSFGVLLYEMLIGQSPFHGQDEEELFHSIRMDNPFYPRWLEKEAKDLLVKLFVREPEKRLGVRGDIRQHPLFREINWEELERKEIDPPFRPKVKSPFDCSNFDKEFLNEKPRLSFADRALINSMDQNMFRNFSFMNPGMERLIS
Description: as §1

[10] = target: Pim1 (Homo sapiens, UniProt P11309)
Description: as §1

[11] = target: PKA (Homo sapiens, UniProt P17612)
Description: as §1

[12] = target: TNK2 (Homo sapiens, UniProt Q07912)
Description: as §1

[13] = target: BRAF (Homo sapiens, UniProt P15056)
Description: as §1

[14] = target: ACVR1 (Homo sapiens, UniProt Q04771)
Description: as §1

[15] = target: MEK2 (Homo sapiens, UniProt P36507)
Description: as §1

[16] = target: PDGFRA V561D (Homo sapiens, UniProt P16234, V561D)
Description: as §1

[17] = target: MAP4K2 (Homo sapiens, UniProt Q12851)
Description: as §1

[18] = target: Rock1 (Homo sapiens, UniProt Q13464)
Chain of Rock1 (Q13464 whole entry, species assumed): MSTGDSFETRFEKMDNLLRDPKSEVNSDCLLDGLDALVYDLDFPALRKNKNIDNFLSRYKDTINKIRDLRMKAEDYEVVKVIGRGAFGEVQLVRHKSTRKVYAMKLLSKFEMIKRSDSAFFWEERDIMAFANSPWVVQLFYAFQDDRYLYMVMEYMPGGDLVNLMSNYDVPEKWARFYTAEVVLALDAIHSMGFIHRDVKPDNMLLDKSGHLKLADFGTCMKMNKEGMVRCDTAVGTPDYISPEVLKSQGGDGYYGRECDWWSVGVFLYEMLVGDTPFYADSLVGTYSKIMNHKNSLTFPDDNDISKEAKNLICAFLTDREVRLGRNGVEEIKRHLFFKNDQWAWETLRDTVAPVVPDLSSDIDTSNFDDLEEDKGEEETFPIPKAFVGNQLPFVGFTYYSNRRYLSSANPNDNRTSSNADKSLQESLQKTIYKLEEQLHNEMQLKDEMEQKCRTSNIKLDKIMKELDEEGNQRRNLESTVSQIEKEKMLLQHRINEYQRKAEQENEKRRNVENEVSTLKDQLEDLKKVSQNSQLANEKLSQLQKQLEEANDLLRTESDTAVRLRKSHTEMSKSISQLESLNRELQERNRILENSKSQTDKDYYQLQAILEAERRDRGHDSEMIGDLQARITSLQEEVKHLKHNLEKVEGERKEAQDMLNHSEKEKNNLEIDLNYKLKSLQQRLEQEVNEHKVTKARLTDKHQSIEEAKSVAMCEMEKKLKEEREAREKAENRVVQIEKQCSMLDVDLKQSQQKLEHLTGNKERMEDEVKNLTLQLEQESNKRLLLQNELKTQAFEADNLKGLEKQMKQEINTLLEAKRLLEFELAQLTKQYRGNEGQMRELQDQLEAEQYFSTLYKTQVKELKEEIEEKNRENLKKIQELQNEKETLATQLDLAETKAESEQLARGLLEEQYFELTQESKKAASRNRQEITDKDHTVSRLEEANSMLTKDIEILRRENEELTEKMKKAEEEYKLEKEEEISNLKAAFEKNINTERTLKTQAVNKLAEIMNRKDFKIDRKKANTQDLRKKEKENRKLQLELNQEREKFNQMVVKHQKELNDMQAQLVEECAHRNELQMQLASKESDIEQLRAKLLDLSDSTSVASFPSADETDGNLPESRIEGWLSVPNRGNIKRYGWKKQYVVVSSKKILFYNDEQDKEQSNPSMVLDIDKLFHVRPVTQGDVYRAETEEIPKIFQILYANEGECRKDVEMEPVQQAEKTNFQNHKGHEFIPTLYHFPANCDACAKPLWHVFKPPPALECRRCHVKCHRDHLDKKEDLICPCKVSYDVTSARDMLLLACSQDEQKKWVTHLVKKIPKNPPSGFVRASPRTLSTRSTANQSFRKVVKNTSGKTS
Description: as §1

[19] = target: MEK1 (Homo sapiens, UniProt Q02750)
Description: as §1

[20] = target: TTK (Homo sapiens, UniProt P33981)
Description: as §1

[21] = target: Erk2 (Homo sapiens, UniProt P28482)
Chain of Erk2 (P28482 whole entry, species assumed): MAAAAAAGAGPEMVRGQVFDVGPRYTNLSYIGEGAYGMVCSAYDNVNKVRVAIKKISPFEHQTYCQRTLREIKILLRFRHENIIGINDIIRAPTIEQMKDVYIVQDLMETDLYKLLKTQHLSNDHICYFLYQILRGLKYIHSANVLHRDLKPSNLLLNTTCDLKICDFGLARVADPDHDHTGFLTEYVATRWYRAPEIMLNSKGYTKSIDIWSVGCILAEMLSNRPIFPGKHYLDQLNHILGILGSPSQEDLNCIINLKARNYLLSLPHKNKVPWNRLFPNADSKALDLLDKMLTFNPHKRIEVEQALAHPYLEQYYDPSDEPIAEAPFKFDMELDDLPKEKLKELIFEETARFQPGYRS
Description: as §1

[22] = target: Fyn (Homo sapiens, UniProt P06241)
Description: as §1

[23] = target: DDR1 (Homo sapiens, UniProt Q08345)
Description: as §1

[24] = target: IGF1R (Homo sapiens, UniProt P08069)
Description: as §1

[25] = target: Nek2 (Homo sapiens, UniProt P51955)
Description: as §1

[26] = target: LCK (Homo sapiens, UniProt P06239)
Description: as §1

[27] = target: T1, PAK4KD (Homo sapiens, UniProt O96013)
T1 construct: PAK4KD
Description: as §1

[28] = target: RET (Homo sapiens, UniProt P07949)
Description: as §1

[29] = target: MAP3K10 (Homo sapiens, UniProt Q02779)
Description: as §1

[30] = target: PDGFRB (Homo sapiens, UniProt P09619)
Description: as §1

[31] = target: CDK8/Cyclin C (Homo sapiens, UniProt P49336)
Chain of CDK8/Cyclin C (P49336 whole entry, species assumed): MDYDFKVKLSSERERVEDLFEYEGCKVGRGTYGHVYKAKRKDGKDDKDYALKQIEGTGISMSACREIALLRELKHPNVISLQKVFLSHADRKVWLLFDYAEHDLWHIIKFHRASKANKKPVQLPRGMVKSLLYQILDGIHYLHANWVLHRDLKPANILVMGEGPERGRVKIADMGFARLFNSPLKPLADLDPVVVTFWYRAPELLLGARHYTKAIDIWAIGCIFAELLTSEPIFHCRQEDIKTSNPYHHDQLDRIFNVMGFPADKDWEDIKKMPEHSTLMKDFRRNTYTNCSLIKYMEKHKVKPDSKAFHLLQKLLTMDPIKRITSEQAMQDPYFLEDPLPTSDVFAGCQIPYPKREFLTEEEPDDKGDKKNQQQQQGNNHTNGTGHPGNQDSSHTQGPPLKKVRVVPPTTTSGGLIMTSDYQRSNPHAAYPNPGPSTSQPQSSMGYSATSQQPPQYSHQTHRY
Chain of CDK8/Cyclin C (P24863 whole entry partner, species assumed): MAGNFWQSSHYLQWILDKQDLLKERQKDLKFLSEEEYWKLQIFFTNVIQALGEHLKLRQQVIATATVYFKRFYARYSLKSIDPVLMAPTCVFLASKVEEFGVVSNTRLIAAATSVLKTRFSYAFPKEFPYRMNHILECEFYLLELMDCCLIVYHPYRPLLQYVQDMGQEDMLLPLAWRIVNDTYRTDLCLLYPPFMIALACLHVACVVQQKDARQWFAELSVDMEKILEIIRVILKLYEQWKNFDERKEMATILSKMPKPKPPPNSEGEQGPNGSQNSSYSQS
Description: as §1

[32] = target: TrkC (Homo sapiens, UniProt Q16288)
Description: as §1

[33] = target: Rsk2 (Homo sapiens, UniProt P51812)
Chain of Rsk2 (P51812 whole entry, species assumed): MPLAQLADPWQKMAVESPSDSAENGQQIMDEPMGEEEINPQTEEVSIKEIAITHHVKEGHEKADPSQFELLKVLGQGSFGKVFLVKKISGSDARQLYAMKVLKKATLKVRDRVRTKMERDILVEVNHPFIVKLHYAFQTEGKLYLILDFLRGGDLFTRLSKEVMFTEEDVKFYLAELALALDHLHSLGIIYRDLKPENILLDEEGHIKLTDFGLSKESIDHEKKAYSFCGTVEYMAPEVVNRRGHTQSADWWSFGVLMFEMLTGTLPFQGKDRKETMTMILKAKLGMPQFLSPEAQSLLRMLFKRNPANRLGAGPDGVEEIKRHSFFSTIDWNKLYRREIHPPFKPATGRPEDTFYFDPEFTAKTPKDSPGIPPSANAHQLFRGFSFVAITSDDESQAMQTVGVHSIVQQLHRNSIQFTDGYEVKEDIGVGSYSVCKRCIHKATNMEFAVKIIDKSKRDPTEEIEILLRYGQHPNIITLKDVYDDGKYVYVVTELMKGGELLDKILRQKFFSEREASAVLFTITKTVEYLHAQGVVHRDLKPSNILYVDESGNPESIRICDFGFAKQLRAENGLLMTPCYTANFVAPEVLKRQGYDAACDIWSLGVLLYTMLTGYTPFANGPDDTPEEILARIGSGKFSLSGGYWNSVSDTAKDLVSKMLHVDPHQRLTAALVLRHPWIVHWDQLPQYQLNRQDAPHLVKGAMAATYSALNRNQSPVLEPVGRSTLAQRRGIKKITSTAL
Description: as §1

[34] = target: MAP4K4 (Homo sapiens, UniProt O95819)
Description: as §1

[35] = target: Ck1alpha1 (Homo sapiens, UniProt P48729)
Description: as §1

[36] = target: Gsk3b (Homo sapiens, UniProt P49841)
Chain of Gsk3b (P49841 whole entry, species assumed): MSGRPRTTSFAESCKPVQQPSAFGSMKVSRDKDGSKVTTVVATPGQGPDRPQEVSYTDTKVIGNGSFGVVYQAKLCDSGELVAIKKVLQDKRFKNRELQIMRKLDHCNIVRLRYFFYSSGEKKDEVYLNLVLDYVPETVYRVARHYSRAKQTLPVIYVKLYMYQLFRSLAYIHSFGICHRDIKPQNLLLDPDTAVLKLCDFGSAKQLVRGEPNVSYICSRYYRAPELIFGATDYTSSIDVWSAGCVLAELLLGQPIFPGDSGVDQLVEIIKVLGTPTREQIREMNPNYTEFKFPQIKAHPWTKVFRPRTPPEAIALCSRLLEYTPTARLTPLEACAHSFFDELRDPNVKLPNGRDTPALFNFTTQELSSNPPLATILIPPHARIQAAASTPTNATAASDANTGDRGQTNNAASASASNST
Description: as §1

[37] = target: KDR (Homo sapiens, UniProt P35968)
Description: as §1

[38] = target: Flt1 (Homo sapiens, UniProt P17948)
Description: as §1

[39] = target: DYRK1B (Homo sapiens, UniProt Q9Y463)
Description: as §1

[40] = target: BTK (Homo sapiens, UniProt Q06187)
Description: as §1

[41] = target: DYRK1A (Homo sapiens, UniProt Q13627)
Description: as §1

[42] = target: Akt1 (Homo sapiens, UniProt P31749)
Description: as §1

[43] = target: IKKE (Homo sapiens, UniProt Q14164)
Description: as §1

[44] = target: CDK7/Cyclin H/Mat1 (Homo sapiens, UniProt P50613)
Description: as §1

[45] = target: MST1 (Homo sapiens, UniProt Q13043)
Description: as §1

Measured: IC50

CC[C@@H]1CN(C(=O)NCC(F)(F)F)C[C@@H]1c1cnc2cnc3[nH]ccc3n12 [upadacitinib, (3S,4R)-3-ethyl-4-(3H-imidazo [1,2-a]pyrrolo [2,3-e]pyrazin-8-yl)-N-(2,2,2-trifluoroethyl) pyrrolidine-1-carboxamide]
5.1 µM: [9] | [12]
2.4 µM: [28]
> 1.5 µM: [37]
< 1 µM and 0.92 µM: [18]
> 9.6 µM: [33]
> 10 µM: all other assays above
